Consider 34 sequences from the supplement of paper PMC11208160.
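Also: IS621 bridge recombinase in Escherichia coli cells against a fixed T5 target plasmid.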

The data set is described as follows: recombinant UMI read abundance after kanamycin selection (control-corrected) (log10(CPM+1)); higher = more efficient recombination; extreme values may be limits of the assay; sequences stand for … in AGTGCAGAGAAAATCGGCCAGTTTTCTCTGCCTGCAGTCCGCATGCCGTGGGACCCCTTGGGTTCTAACCTGTTGCCTAGATTTATGCAGCGGACTGCCTTTCTCCCAAAGTGATAAACCGG…AGGTTGGTTTCACT; site = the 11-nt donor. The method in brief:
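The measure is log10(CPM+1) for recombinant UMIs. These were PCR-amplified across the donor–target junction and sequenced after Escherichia coli carrying a donor and donor-binding-loop pair library and a target plasmid with T7-inducible IS621 bridge recombinase was plated on IPTG (0.07 mM) plus kanamycin or unselected. CPM were averaged over two replicates and scaled by control-derived factors.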
Take “ATTGATACATGGACCGGTTTTCCCGGTAATCCGTATTTGCG (site CCACTCCCTGT)”: the “recombinant UMI read abundance (log10)” value was 0.
With “ATTGCACCATGGACCGGTTTTCCCGGTAATCCGTATTTGGT (site ATTGCACCTAC)”, the “recombinant UMI read abundance (log10)” value stood at 0.00574.
In the case of “ATTGCCACATGGACCGGTTTTCCCGGTAATCCGTATTTGCC (site ATTGCCACTGG)”, the “recombinant UMI read abundance (log10)” value is 1.95.
With “ATTGTAACATGGACCGGTTTTCCCGGTAATCCGTATTTGAG (site ATTGTAACTCT)”, the “recombinant UMI read abundance (log10)” value turned out to be 0.94.
In the case of “ATTGTATCATGGACCGGTTTTCCCGGTAATCCGTATTTGTC (site ATTGTATCTGA)”, the “recombinant UMI read abundance (log10)” value stood at 1.56.
As to “ATTGTGACATGGACCGGTTTTCCCGGTAATCCGTATTTGCT (site ATTGTGACTAG)”, the “recombinant UMI read abundance (log10)” value came to 2.98.
With “ATTTCAACATGGACCGGTTTTCCCGGTAATCCGTATTTGAC (site ATTTCAACTGT)” the figure was 0.461.
“ATTTCCACATGGACCGGTTTTCCCGGTAATCCGTATTTGTC (site ATTTCCACTGA)”: the “recombinant UMI read abundance (log10)” value came to 0.636.
On to “ATTTGGGCATGGACCGGTTTTCCCGGTAATCCGTATTTGGG (site ATTTGGGCTCC)”, for which the “recombinant UMI read abundance (log10)” value amounted to 0.0319.
For the sequence “CAAAATCCATGGACCGGTTTTCCCGGTAATCCGTATTTGTA (site CAAAATCCTTA)”, the “recombinant UMI read abundance (log10)” value stood at 1.8.
For “CAAAGGGCATGGACCGGTTTTCCCGGTAATCCGTATTTGTA (site CAAAGGGCTTA)” the value was 2.57; for “CAAAGTCCATGGACCGGTTTTCCCGGTAATCCGTATTTGTA (site AAAAGTCCTTA)”, 0.474.
As to “CAAAGTCCATGGACCGGTTTTCCCGGTAATCCGTATTTGTA (site CAAAGTCCTTA)”, the “recombinant UMI read abundance (log10)” value was 2.04.
For “CAAAGTCCATGGACCGGTTTTCCCGGTAATCCGTATTTGTA (site GAAAGTCCTTA)” the value was 0.405; for “CAAAGTCCATGGACCGGTTTTCCCGGTAATCCGTATTTGTA (site TAAAGTCCTTA)”, 0.742; for “CAAATATCATGGACCGGTTTTCCCGGTAATCCGTATTTGAC (site CAAATATCTGT)”, 1.58.
Consider “CAAATATCATGGACCGGTTTTCCCGGTAATCCGTATTTGAC (site CTAGTATCTGT)”, for which the “recombinant UMI read abundance (log10)” value amounted to 0.632.
On to “CAACATACATGGACCGGTTTTCCCGGTAATCCGTATTTGGG (site CAACATACTCC)”, for which the “recombinant UMI read abundance (log10)” value is 0.887.
With “CAACTCTCATGGACCGGTTTTCCCGGTAATCCGTATTTGGT (site CAACTCTCTAC)”, the “recombinant UMI read abundance (log10)” value turned out to be 2.56.
Take “CAACTGACATGGACCGGTTTTCCCGGTAATCCGTATTTGCA (site CAACTGACTTG)”: the “recombinant UMI read abundance (log10)” value was found to be 2.73.
Regarding “CAACTTCCATGGACCGGTTTTCCCGGTAATCCGTATTTGTT (site CAACTTCCTAA)”, the “recombinant UMI read abundance (log10)” value was 1.5.
With “CAAGAAGCATGGACCGGTTTTCCCGGTAATCCGTATTTGCT (site CAAGAAGCTAG)” the figure was 1.55; with “CAAGAAGCATGGACCGGTTTTCCCGGTAATCCGTATTTGCT (site CAAGCAGCTAG)”, 0.
“CAAGAAGCATGGACCGGTTTTCCCGGTAATCCGTATTTGCT (site CAAGGAGCTAG)”: the “recombinant UMI read abundance (log10)” value is 1.87.
For “CAAGAAGCATGGACCGGTTTTCCCGGTAATCCGTATTTGCT (site CAAGTAGCTAG)”, the “recombinant UMI read abundance (log10)” value is 1.17.
As to “CAAGAGTCATGGACCGGTTTTCCCGGTAATCCGTATTTGGT (site CAAGAGTCTAC)”, the “recombinant UMI read abundance (log10)” value was 2.79.
As to “CAAGATTCATGGACCGGTTTTCCCGGTAATCCGTATTTGGG (site CAAGATTCTCC)”, the “recombinant UMI read abundance (log10)” value came out at 0.89.
As for “CAAGCACCATGGACCGGTTTTCCCGGTAATCCGTATTTGCT (site CAAGCAACTAG)”, the “recombinant UMI read abundance (log10)” value was determined as 0.
For “CAAGCACCATGGACCGGTTTTCCCGGTAATCCGTATTTGCT (site CAAGCACCTAG)” the value was 0.47; for “CAAGCACCATGGACCGGTTTTCCCGGTAATCCGTATTTGCT (site CAAGCAGCTAG)”, 0.0135.
For “CAAGCACCATGGACCGGTTTTCCCGGTAATCCGTATTTGCT (site CAAGCATCTAG)” the value was 0.0059.
With “CAAGCAGCATGGACCGGTTTTCCCGGTAATCCGTATTTGCC (site CAAGCAGCTAG)” the figure was 1.86; with “CAAGCAGCATGGACCGGTTTTCCCGGTAATCCGTATTTGCC (site CAAGCAGCTCG)”, 1.16.
“CAAGCAGCATGGACCGGTTTTCCCGGTAATCCGTATTTGCC (site CAAGCAGCTGG)”: the “recombinant UMI read abundance (log10)” value is 2.75.
